{
  "source": "patent US20100286038A1",
  "about": "“FORMULATION CONTAINING CYCLIN-DEPENDENT KINASE INHIBITING COMPOUND AND METHOD OF TREATING TUMORS USING THE SAME” (priority 2007, published 2010)",
  "key": {"CDK7/cyclinH/MAT1": {"target": "T1, CDK7/cyclinH/MAT1 (Homo sapiens, UniProt P50613)", "T1 construct": "purchased Upstate", "T1 sequence (P50613 whole entry, species assumed)": "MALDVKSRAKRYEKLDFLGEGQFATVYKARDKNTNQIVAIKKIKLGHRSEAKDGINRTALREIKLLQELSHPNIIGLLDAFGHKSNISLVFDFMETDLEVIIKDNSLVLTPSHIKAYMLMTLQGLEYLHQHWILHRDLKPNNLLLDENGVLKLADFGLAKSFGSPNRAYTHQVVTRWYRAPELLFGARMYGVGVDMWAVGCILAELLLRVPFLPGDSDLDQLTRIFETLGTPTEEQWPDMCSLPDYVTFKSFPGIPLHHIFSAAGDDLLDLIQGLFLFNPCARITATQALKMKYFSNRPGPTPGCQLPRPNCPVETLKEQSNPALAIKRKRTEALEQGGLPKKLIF", "T1 sequence (P51946 whole entry partner, species assumed)": "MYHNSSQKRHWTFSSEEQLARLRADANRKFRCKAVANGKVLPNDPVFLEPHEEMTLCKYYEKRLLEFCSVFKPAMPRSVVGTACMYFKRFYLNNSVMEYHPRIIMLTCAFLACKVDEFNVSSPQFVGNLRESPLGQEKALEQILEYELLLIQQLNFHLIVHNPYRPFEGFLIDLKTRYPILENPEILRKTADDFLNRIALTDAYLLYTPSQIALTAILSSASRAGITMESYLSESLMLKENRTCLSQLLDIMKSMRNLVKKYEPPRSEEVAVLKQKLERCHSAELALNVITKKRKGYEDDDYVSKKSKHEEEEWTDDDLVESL", "T1 sequence (P51948 whole entry partner, species assumed)": "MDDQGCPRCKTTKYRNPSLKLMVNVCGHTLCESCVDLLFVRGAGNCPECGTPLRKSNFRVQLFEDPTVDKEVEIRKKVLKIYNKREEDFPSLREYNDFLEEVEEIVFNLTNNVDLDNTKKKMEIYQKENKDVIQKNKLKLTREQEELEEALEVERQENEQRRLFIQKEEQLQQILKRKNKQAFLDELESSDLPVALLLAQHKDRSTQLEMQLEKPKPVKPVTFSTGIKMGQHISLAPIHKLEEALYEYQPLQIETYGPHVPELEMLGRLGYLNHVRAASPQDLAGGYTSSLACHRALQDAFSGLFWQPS", "experiment": "Upstate kinase Profiler counter-screening", "type": "biochemical"}, "Rsk2": {"target": "T2, Rsk2 (Homo sapiens, UniProt P51812)", "T2 construct": "purchased Upstate", "T2 sequence (P51812 whole entry, species assumed)": "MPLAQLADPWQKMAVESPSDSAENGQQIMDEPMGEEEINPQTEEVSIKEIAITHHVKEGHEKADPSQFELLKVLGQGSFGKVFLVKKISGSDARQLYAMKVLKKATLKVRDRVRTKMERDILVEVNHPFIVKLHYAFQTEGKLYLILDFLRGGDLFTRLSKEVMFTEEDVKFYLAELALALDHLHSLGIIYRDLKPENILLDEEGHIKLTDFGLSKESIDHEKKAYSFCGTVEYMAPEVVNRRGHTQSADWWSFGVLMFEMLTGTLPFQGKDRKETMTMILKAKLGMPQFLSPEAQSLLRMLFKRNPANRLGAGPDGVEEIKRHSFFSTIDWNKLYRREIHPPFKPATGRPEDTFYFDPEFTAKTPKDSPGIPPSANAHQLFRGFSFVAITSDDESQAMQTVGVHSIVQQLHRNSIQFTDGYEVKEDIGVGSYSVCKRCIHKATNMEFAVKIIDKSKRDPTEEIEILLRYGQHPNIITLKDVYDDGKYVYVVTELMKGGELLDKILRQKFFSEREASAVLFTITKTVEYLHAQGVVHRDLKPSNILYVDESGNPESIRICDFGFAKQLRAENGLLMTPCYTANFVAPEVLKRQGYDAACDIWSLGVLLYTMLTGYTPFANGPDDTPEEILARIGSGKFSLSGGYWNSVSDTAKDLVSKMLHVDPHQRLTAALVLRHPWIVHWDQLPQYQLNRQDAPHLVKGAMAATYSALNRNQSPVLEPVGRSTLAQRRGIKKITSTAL", "experiment": "Upstate kinase Profiler counter-screening", "type": "biochemical"}, "A2780 cells [1]": {"system": "A2780 cells", "details": "16 hours exposure", "excerpt": "Accumulation of the p85 PARP product was also monitored to assess activation of caspases and correlate inhibition of CDKs with the onset of apoptosis."}, "Fes": {"target": "T3, Fes (Homo sapiens, UniProt P07332)", "T3 construct": "purchased Upstate", "experiment": "Upstate kinase Profiler counter-screening", "type": "biochemical"}, "CDK6/cyclinD3": {"target": "T4, CDK6/cyclinD3 (Homo sapiens, UniProt Q00534)", "T4 construct": "purchased Upstate", "T4 sequence (Q00534 whole entry, species assumed)": "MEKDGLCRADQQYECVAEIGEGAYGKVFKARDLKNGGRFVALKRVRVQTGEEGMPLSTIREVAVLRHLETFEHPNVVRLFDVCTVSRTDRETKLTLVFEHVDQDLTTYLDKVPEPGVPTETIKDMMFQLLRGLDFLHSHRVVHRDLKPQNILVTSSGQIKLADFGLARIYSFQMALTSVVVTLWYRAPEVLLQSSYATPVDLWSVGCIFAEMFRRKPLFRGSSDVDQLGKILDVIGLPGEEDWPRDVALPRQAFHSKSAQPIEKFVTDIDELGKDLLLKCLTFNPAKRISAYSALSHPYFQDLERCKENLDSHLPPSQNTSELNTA", "T4 sequence (P30281 whole entry partner, species assumed)": "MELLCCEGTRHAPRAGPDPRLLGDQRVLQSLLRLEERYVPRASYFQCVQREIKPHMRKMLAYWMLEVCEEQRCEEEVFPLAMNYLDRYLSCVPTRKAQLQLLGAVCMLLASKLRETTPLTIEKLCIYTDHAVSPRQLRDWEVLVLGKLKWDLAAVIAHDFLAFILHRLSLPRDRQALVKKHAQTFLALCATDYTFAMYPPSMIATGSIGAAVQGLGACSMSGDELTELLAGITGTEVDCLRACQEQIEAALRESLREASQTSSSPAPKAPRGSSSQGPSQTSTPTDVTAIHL", "experiment": "Upstate kinase Profiler counter-screening", "type": "biochemical"}, "MSK1": {"target": "T5, MSK1 (Homo sapiens, UniProt O75582)", "T5 construct": "purchased Upstate", "T5 sequence (O75582 whole entry, species assumed)": "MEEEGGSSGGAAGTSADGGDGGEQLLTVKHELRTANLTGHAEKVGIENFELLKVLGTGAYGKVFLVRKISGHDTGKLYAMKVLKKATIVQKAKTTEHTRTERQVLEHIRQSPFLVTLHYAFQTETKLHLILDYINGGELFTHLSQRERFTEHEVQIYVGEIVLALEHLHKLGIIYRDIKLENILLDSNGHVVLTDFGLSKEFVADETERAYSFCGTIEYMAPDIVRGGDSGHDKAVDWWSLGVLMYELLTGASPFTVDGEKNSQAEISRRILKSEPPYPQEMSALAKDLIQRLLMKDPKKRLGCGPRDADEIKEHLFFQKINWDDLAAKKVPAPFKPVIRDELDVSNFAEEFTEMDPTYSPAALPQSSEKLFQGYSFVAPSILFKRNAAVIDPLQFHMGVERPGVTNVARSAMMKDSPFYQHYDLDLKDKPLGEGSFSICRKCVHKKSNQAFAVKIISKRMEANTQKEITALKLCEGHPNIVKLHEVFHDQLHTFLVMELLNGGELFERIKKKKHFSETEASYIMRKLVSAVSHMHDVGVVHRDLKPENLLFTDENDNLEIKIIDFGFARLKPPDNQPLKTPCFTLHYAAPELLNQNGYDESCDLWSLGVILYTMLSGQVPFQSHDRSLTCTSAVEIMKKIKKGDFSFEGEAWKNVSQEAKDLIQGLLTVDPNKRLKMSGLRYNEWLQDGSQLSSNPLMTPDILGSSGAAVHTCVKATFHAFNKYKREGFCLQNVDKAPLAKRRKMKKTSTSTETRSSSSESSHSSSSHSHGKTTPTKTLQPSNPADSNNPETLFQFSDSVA", "experiment": "Upstate kinase Profiler counter-screening", "type": "biochemical"}, "PKCβII": {"target": "T6, PKCβII (Homo sapiens, UniProt P05771)", "T6 construct": "purchased Upstate", "experiment": "Upstate kinase Profiler counter-screening", "type": "biochemical"}, "A2780 cells [2]": {"system": "A2780 cells", "experiment": "in-cell inhibition of thymidine incorporation", "type": "cell-based", "details": "Homo sapiens"}, "in vivo": {"experiment": "in vivo", "details": "nude, mouse, ip"}, "PKCα": {"target": "T7, PKCα (Homo sapiens, UniProt P17252)", "T7 construct": "purchased Upstate", "experiment": "Upstate kinase Profiler counter-screening", "type": "biochemical"}, "YES": {"target": "T8, YES (Homo sapiens, UniProt P07947)", "T8 construct": "purchased Upstate", "T8 sequence (P07947 whole entry, species assumed)": "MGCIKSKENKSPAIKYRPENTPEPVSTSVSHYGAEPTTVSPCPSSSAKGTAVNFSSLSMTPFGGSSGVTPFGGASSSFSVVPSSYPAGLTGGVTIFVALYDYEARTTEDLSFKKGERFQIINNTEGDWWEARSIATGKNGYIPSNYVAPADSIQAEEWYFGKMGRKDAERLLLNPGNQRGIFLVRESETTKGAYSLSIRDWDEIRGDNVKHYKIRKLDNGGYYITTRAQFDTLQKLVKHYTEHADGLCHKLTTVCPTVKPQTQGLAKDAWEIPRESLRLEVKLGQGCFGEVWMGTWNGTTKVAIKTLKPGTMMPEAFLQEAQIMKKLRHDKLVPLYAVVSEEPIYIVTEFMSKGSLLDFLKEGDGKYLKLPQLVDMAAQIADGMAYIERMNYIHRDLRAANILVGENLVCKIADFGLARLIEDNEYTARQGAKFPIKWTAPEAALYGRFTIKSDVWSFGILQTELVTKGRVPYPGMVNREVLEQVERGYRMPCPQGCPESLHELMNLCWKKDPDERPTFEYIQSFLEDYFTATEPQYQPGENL", "experiment": "Upstate kinase Profiler counter-screening", "type": "biochemical"}, "PKCθ": {"target": "T9, PKCθ (Homo sapiens, UniProt Q04759)", "T9 construct": "purchased Upstate", "experiment": "Upstate kinase Profiler counter-screening", "type": "biochemical"}, "CaMKII": {"system": "CaMKII", "type": "biochemical"}, "Lyn": {"target": "T10, Lyn (Homo sapiens, UniProt P07948)", "T10 construct": "purchased Upstate", "T10 sequence (P07948 whole entry, species assumed)": "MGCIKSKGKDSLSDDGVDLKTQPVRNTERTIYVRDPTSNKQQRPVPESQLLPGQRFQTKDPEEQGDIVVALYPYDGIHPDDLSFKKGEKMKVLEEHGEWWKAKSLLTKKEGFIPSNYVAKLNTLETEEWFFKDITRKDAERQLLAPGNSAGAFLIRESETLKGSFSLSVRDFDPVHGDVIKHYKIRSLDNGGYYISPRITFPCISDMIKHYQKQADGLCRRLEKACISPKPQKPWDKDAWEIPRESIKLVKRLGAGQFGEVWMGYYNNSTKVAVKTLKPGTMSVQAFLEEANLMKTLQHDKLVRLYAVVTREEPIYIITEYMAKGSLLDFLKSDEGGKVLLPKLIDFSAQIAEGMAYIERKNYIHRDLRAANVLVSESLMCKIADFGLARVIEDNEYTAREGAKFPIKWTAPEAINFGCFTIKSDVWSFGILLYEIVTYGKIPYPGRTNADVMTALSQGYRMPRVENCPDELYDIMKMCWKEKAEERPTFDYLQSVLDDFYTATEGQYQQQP", "experiment": "Upstate kinase Profiler counter-screening", "type": "biochemical"}, "[3]": {"system": "A2780 ovarian carcinoma xenografts", "experiment": "A2780 xenograft ovarian cancer model", "type": "in vivo, nude mice"}, "AMPK": {"system": "AMPK", "experiment": "Upstate kinase Profiler counter-screening", "type": "biochemical"}, "PKCε": {"target": "T11, PKCε (Homo sapiens, UniProt Q02156)", "T11 construct": "purchased Upstate", "T11 sequence (Q02156 1-737)": "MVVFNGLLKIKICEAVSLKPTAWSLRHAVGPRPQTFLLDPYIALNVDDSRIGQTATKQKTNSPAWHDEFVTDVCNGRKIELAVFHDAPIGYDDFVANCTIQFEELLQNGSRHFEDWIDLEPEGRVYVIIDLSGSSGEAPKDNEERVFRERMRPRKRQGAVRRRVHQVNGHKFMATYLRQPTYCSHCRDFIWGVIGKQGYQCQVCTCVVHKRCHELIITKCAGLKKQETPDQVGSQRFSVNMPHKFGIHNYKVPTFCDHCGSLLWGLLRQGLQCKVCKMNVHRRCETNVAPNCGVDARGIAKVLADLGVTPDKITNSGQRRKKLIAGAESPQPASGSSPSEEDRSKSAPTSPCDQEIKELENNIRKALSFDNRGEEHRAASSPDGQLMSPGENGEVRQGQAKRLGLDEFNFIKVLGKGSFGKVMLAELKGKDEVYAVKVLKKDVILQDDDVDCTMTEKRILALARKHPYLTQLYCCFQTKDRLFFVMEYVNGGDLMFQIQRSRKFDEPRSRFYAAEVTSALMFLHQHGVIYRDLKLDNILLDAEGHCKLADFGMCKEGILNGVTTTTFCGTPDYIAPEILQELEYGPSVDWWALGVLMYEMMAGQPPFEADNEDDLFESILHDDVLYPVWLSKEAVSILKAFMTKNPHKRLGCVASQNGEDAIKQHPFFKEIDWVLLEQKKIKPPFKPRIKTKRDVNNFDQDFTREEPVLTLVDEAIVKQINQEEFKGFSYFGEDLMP", "experiment": "Upstate kinase Profiler counter-screening", "type": "biochemical"}, "cSRC": {"target": "T12, cSRC (Homo sapiens, UniProt P12931)", "T12 construct": "purchased Upstate", "experiment": "Upstate kinase Profiler counter-screening", "type": "biochemical"}, "H82 (SCLC)": {"system": "H82 (SCLC)", "experiment": "xenograft tumor model", "details": "mouse, in vivo"}, "A549 NSCLC xenografts": {"system": "A549 NSCLC xenografts", "details": "mouse, in vivo"}},
  "note": "Where two headings read alike, the source gives them in different places.",
  "data": [
    {"compound": "CN1CC[C@H](c2c(O)cc(O)c3c(=O)cc(-c4ccccc4Cl)oc23)[C@H](O)C1", "note": "[Formula III, Flavopiridol, reference compound]", "values": [
      {"measurement": "remaining activity at 1 µM", "setting": "CDK7/cyclinH/MAT1; at 1 μM", "result": 18, "unit": "%"},
      {"measurement": "remaining activity at 10 µM", "setting": "CDK7/cyclinH/MAT1; at 10 μM", "result": 6, "unit": "%"},
      {"measurement": "remaining activity at 1 µM", "setting": "Rsk2; at 1 μM", "result": 65, "unit": "%"},
      {"measurement": "remaining activity at 10 µM", "setting": "Rsk2; at 10 μM", "result": 18, "unit": "%"},
      {"measurement": "concentration required to induce detectable effects on phospho-Ser 807/811 levels", "setting": "A2780 cells [1]", "result": "about 1 micromolar"},
      {"measurement": "remaining activity at 1 µM", "setting": "Fes; at 1 μM", "result": 44, "unit": "%"},
      {"measurement": "remaining activity at 10 µM", "setting": "Fes; at 10 μM", "result": 13, "unit": "%"},
      {"measurement": "remaining activity at 1 µM", "setting": "CDK6/cyclinD3; at 1 μM", "result": 25, "unit": "%"},
      {"measurement": "remaining activity at 10 µM", "setting": "CDK6/cyclinD3; at 10 μM", "result": 6, "unit": "%"},
      {"measurement": "remaining activity at 1 µM", "setting": "MSK1; at 1 μM", "result": 74, "unit": "%"},
      {"measurement": "remaining activity at 10 µM", "setting": "MSK1; at 10 μM", "result": 37, "unit": "%"},
      {"measurement": "remaining activity at 1 µM", "setting": "PKCβII; at 1 μM", "result": 75, "unit": "%"},
      {"measurement": "remaining activity at 10 µM", "setting": "PKCβII; at 10 μM", "result": 26, "unit": "%"},
      {"measurement": "IC50", "setting": "A2780 cells [2]", "result": 70, "unit": "nM"},
      {"measurement": "MTD at 7 days", "setting": "in vivo", "result": "< 10", "unit": "mg/kg"},
      {"measurement": "remaining activity at 1 µM", "setting": "PKCα; at 1 μM", "result": 66, "unit": "%"},
      {"measurement": "remaining activity at 10 µM", "setting": "PKCα; at 10 μM", "result": 20, "unit": "%"},
      {"measurement": "remaining activity at 1 µM", "setting": "YES; at 1 μM", "result": 68, "unit": "%"},
      {"measurement": "remaining activity at 10 µM", "setting": "YES; at 10 μM", "result": 40, "unit": "%"},
      {"measurement": "remaining activity at 1 µM", "setting": "PKCθ; at 1 μM", "result": 23, "unit": "%"},
      {"measurement": "remaining activity at 10 µM", "setting": "PKCθ; at 10 μM", "result": 5, "unit": "%"},
      {"measurement": "% remaining activity", "setting": "CaMKII; at 1 μM", "result": 44, "unit": "%"},
      {"measurement": "% remaining activity", "setting": "CaMKII; at 10 μM", "result": 30, "unit": "%"},
      {"measurement": "remaining activity at 1 µM", "setting": "Lyn; at 1 μM", "result": 73, "unit": "%"},
      {"measurement": "remaining activity at 10 µM", "setting": "Lyn; at 10 μM", "result": 18, "unit": "%"},
      {"measurement": "MED", "setting": "[3]; once per day IP for 7 days, dose inducing at least 50% inhibition of tumor growth", "result": 10, "unit": "mg/kg"},
      {"measurement": "% remaining activity", "setting": "AMPK; at 1 μM", "result": 67, "unit": "%"},
      {"measurement": "% remaining activity", "setting": "AMPK; at 10 μM", "result": 20, "unit": "%"},
      {"measurement": "remaining activity at 1 µM", "setting": "PKCε; at 1 μM", "result": 45, "unit": "%"},
      {"measurement": "remaining activity at 10 µM", "setting": "PKCε; at 10 μM", "result": 9, "unit": "%"},
      {"measurement": "remaining activity at 1 µM", "setting": "cSRC; at 1 μM", "result": 3, "unit": "%"},
      {"measurement": "remaining activity at 10 µM", "setting": "cSRC; at 10 μM", "result": 4, "unit": "%"}
    ]},
    {"compound": "N.N.O=C([O-])C1(C(=O)[O-])CCC1.[Pt+2]", "note": "[carboplatin, reference compound]", "values": [
      {"measurement": "% inhibition observed with benchmark cytotoxic agent", "setting": "H82 (SCLC)", "result": 40, "unit": "%"}
    ]},
    {"compound": "CC(=O)O[C@H]1C(=O)[C@@]2(C)[C@H]([C@H](OC(=O)c3ccccc3)[C@]3(O)C[C@H](OC(=O)[C@H](O)[C@@H](NC(=O)c4ccccc4)c4ccccc4)C(C)=C1C3(C)C)[C@]1(OC(C)=O)CO[C@@H]1C[C@@H]2O", "note": "[paclitaxel, reference compound]", "values": [
      {"measurement": "% inhibition observed with benchmark cytotoxic agent", "setting": "A549 NSCLC xenografts", "result": 0, "unit": "%"},
      {"measurement": "tumor growth inhibited", "setting": "[3]; 20 mg/kg IP twice weekly, ten day period", "result": 63, "unit": "%"}
    ]}
  ]
}
